The values that follow come from ChEMBL document CHEMBL1148857, “In vitro and in vivo profile of 5-[(4'-trifluoromethyl-biphenyl-2-carbonyl)-amino]-1H-indole-2-carboxylic acid benzylmethyl carbamoylamide (dirlotapide), a novel potent MTP inhibitor for obesity” (Bioorg Med Chem Lett, 2007).

A short description of data set [1]: Volume of distribution at steady state in rat at 0.3 mg/kg, iv. Format: ADME, organism-based. Further details: dose 0.3 mg/kg, route intravenous. The conditions noted are these: in vivo, read-out: Vdss.
Data set [2] addresses Type-2 angiotensin II receptor (Homo sapiens) (UniProt P50052). Description: Inhibition of AT2 receptor at 1 uM.
Data set [3] can be described thus: Half life in Beagle dog at 0.5 mg/kg, iv. The class given is ADME, organism-based, Canis lupus familiaris. Further details: dose 0.5 mg/kg, route intravenous. As to conditions: in vivo.
Data set [4] can be described thus: Plasma clearance in rat at 5 mg/kg, iv. Format: ADME, organism-based. Further details: dose 5 mg/kg, route intravenous.
The target in data set [5] is Delta-type opioid receptor (Homo sapiens) (UniProt P41143). Nature of the data set: Inhibition of delta opioid receptor at 1 uM.
Chain of Delta-type opioid receptor (Homo sapiens) (P41143 whole entry): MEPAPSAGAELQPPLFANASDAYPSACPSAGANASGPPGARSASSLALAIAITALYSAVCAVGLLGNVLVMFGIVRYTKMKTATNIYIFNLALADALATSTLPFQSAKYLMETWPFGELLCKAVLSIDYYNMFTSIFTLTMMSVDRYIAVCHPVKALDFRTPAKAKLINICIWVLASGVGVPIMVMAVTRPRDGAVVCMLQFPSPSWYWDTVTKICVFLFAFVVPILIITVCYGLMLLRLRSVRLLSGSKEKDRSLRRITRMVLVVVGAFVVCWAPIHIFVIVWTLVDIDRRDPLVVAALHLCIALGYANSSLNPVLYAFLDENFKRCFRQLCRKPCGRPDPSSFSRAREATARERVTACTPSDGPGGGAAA
In data set [6] the target is Histamine H3 receptor (Homo sapiens) (UniProt Q9Y5N1). Nature of the data set: Inhibition of histamine H3 receptor at 1 uM.
Chain of Histamine H3 receptor (Homo sapiens) (Q9Y5N1 whole entry): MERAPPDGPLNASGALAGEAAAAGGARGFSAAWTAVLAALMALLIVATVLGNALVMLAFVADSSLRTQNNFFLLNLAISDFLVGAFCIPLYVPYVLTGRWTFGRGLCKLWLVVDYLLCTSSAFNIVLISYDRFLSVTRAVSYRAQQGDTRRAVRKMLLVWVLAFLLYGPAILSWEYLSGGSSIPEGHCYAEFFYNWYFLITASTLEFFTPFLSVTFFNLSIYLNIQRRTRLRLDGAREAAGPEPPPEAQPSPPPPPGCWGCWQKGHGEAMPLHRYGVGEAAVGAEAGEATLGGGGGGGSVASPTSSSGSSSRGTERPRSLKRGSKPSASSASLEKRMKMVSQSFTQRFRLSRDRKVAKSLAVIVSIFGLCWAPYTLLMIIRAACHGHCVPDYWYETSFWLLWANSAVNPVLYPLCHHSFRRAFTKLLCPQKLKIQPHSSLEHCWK
Data set [7] is filed under the species Homo sapiens. Nature of the data set: Inhibition of muscle nicotinic receptor at 1 uM.
Data set [8] in a line: Bioavailability in Beagle dog at 5 mg/kg, po. Format: ADME, organism-based, Canis lupus familiaris. The conditions noted are these: in vivo.
Data set [9] can be described thus: Permeability from basolateral to apical side of the Caco-2 cell membrane at 1 uM in presence of calcium. As to conditions: human. Format: ADME, cell-based. In general terms: Caco-2 cells form a polarised layer with tight junctions and transporters.
Data set [10] is described as follows: Permeability from apical to basolateral side of the Caco-2 cell membrane at 1 uM in presence of calcium. Format: ADME, cell-based. The conditions noted are these: human.
For another data set, the system named is CYP2D6. Nature of the data set: Metabolic stability in human liver microsome at 0.5 uM in presence of 5 uM CYP2D6 inhibitor quinidine. Format: ADME. The conditions noted are these: liver microsomes, with 5 uM quinidine (CYP2D6 inhibitor). (Liver microsomes are vesicles of endoplasmic reticulum, rich in cytochrome P450 enzymes.)
The subject of a further data set is Plasma. Description: Percentage unbound ligand in human blood at 0.2 uM. Format: ADME, cell-free.
Data set [11] can be described thus: Half life in rat at 5 mg/kg, iv. Format: ADME, organism-based. As to conditions: in vivo. Details: dose 5 mg/kg, route intravenous.
Data set [12] in a line: AUC (0 to infinity) in Beagle dog at 0.5 mg/kg, iv. The class given is ADME, organism-based, Canis lupus familiaris. Details: time infinity, dose 0.5 mg/kg, route intravenous. The conditions noted are these: plasma.
For data set [13], the target named is 5-hydroxytryptamine receptor 2C (Homo sapiens) (UniProt P28335). Nature of the data set: Inhibition of 5HT2C receptor at 1 uM.
Chain of 5-hydroxytryptamine receptor 2C (Homo sapiens) (P28335 whole entry): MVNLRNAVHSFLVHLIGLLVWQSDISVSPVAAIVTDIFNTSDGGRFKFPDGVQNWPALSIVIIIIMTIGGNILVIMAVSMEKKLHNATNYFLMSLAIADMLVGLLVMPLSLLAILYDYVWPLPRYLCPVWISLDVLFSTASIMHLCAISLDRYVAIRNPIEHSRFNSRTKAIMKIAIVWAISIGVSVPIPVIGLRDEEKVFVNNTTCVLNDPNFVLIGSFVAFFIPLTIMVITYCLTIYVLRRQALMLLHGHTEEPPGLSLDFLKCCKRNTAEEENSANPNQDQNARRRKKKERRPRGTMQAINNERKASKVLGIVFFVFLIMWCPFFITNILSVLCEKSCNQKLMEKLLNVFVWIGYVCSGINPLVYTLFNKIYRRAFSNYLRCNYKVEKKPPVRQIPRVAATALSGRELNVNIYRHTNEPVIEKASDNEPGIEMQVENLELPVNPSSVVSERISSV
The species named for data set [14] is Homo sapiens. Nature of the data set: Inhibition of kainate receptor at 1 uM.
Data set [15] in a line: Half life in Beagle dog at 0.5 mg/kg, po. Format: ADME, organism-based, Canis lupus familiaris. Details: dose 0.5 mg/kg, route oral. As to conditions: in vivo.
Data set [16] in a line: AUC (0 to t) in rat at 5 mg/kg, iv. Further details: dose 5 mg/kg, route intravenous. As to conditions: plasma. Format: ADME, organism-based.
Data set [17] can be described thus: AUC (0 to infinity) in monkey at 0.5 mg/kg, iv. As to conditions: rhesus monkey, plasma. Details: time infinity, dose 0.5 mg/kg, route intravenous. The class given is ADME, organism-based, Macaca mulatta.
Data set [18] in a line: AUC (0 to t) in Beagle dog at 0.5 mg/kg, iv. The class given is ADME, organism-based, Canis lupus familiaris. Further details: dose 0.5 mg/kg, route intravenous. As to conditions: plasma.

Active and inactive are the calls of the source. The rule behind the calls is not given here.

Chain of Type-2 angiotensin II receptor (Homo sapiens) (P50052 whole entry): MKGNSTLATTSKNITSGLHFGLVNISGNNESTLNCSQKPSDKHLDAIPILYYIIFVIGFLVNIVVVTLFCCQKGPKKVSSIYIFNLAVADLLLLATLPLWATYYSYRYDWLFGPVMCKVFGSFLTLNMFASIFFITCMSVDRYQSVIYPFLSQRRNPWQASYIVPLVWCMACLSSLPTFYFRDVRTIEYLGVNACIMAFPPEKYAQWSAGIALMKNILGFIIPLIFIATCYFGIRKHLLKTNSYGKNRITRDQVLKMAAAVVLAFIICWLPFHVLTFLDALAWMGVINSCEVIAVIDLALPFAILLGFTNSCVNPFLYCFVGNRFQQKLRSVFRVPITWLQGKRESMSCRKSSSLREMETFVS

For orientation: half-life means the time in which the quantity being followed falls by half. What is called clearance is a measure of how efficiently the substance is removed, as volume per time. For orientation: bioavailability means dose-corrected exposure relative to a reference, in per cent. By Papp B→A is commonly meant the apparent permeability from the basolateral to the apical side of a cell layer. By Papp A→B is commonly meant the apparent permeability from the apical to the basolateral side of a cell layer. One may read the AUC(0-inf) as total exposure, with the tail of the curve extrapolated. As usually defined, the AUC(0-t) is the area under the concentration-time curve up to a stated or last time point. Regarding `CN(Cc1ccccc1)C(=O)[C@@H](NC(=O)c1cc2cc(NC(=O)c3ccccc3-c3ccc(C(F)(F)F)cc3)ccc2n1C)c1ccccc1` [DIRLOTAPIDE], the Vd in data set [1] was found to be 11 L/kg. Further, the result (in data set [2]; in data set [5]; in data set [6]; in the data set listed under Homo sapiens [7]; in [13]; in the data set listed under Homo sapiens [14]) was inactive. For the same compound, the half-life in data set [3] is 300 min; in [11], 678 min; in data set [15] it was 846 min. In data set [4], this compound came in with a clearance of 14 mL/min/kg. For the same compound, the bioavailability in [8] is 12%. For the same compound, the basolateral-to-apical permeability (Papp B→A) at 1 µM in data set [9] was 0.4 ×10⁻⁶ cm/s. The Papp A→B at 1 µM in [10] is 0.6 ×10⁻⁶ cm/s. The half-life at 0.5 µM with CYP2D6 was 36 min. This compound also gave a Fu in the data set on Plasma of 0.0097%. Further, the total exposure AUC(0-inf) came out at 1550 ng·h/mL in data set [12] and 703 ng·h/mL in [17]. Further, the exposure AUC(0-t) was 5610 ng·h/mL in data set [16] and 1490 ng·h/mL in data set [18].
